Source: patent US4459291A, “Compounds having antibiotic activity, processes for their preparation, pharmaceutical compositions containing them and their use as medicaments” (priority 1981, dated 1984)
≈ marks a conversion by molar mass, not a printed value. Entries after “also recorded” stand apart in the source; their conditions may differ. Read-outs that look alike come from different tables or passages of the source.

Tests used:
[1] = test system: Staphylococcus aureus ATCC 6538P; assay: Antibacterial activity by agar dilution method at pH 7.0; format: cell-based; details: ATCC6538P
[2] = test system: Bacillus subtilis No. 10707; assay: as above; format: cell-based
[3] = test system: Klebsiella pneumoniae ATCC 10031; assay: as above; format: cell-based
[4] = test system: Salmonella typhosa ATCC 9992; assay: as above; format: cell-based; details: Salmonella enterica
Escherichia coli ATCC 26 = assay: as above; format: cell-based
LD50 (acute toxicity) = details: in vivo
Solubility = details: solvents named in the value

## COc1c2c(c(O)c3c4c(c(C)cc13)C1OC3(C(OC)OC)OC1C(O)(O4)C31CO1)C(=O)C(O)CC2OC1CC(C)(O)C(OC(C)=O)C(C)O1 (stereo not shown) [DC-45-A1]
[1]; Staphylococcus aureus, pH 7, read-out: Minimum Inhibitory Concentration
  MIC: 0.4 µg/mL (≈ 0.568 µM)
[2]; Bacillus subtilis, NO.10707, pH 7, read-out: Minimum Inhibitory Concentration
  MIC: 0.04 µg/mL (≈ 0.0568 µM)
[3]; Klebsiella pneumoniae, ATCC10031, pH 7, read-out: Minimum Inhibitory Concentration
  MIC: 0.4 µg/mL (≈ 0.568 µM)
[4]; pH 7, read-out: Minimum Inhibitory Concentration
  MIC: 50 µg/mL (≈ 71 µM)
Escherichia coli ATCC 26; Escherichia coli, ATCC26, pH 7, read-out: Minimum Inhibitory Concentration
  MIC: 12 µg/mL (≈ 17 µM)
LD50 (acute toxicity); ip
  LD50: 0.375 mg/kg
LD50 (acute toxicity); iv
  LD50: 0.375 mg/kg
Solubility
  Solubility: Soluble in methanol, ethanol, acetone, ethyl acetate and chloroform; also recorded: soluble with difficulty in benzene and aqueous ether; also recorded: insoluble in n-hexane

## COc1c2c(c(O)c3c4c(c(C)cc13)C1OC3(C(OC)OC)OC1C(O)(O4)C31CO1)C(=O)C(O)CC2O (stereo not shown) [DC-45-A2]
[1]; Staphylococcus aureus ATCC 6538P, agar dilution, pH 7.0, read-out: Minimum Inhibitory Concentration
  MIC: 100 µg/mL (≈ 193 µM)
[2]; Bacillus subtilis No. 10707, agar dilution, pH 7.0, read-out: Minimum Inhibitory Concentration
  MIC: 100 µg/mL (≈ 193 µM)
[3]; ATCC10031, Klebsiella pneumoniae ATCC 10031, agar dilution, pH 7.0, read-out: Minimum Inhibitory Concentration
  MIC: 12 µg/mL (≈ 23.1 µM)
[4]; Salmonella typhosa ATCC 9992, agar dilution, pH 7.0, read-out: Minimum Inhibitory Concentration
  MIC: 50 µg/mL (≈ 96.4 µM)
Escherichia coli ATCC 26; ATCC26, Escherichia coli ATCC 26, agar dilution, pH 7.0, read-out: Minimum Inhibitory Concentration
  MIC: 25 µg/mL (≈ 48.2 µM)
LD50 (acute toxicity); ip
  LD50: 5.8 mg/kg
LD50 (acute toxicity); iv
  LD50: 14 mg/kg
Solubility
  Solubility: Soluble in methanol, ethanol, acetone, ethyl acetate and chloroform; also recorded: soluble with difficulty in benzene, ether and water; also recorded: insoluble in n-hexane
